Laboratory results as given in patent US6639111B2, “5-thia-ω-(substituted phenyl)-prostaglandin E alcohols, process for preparing the alcohols and pharmaceutical preparations containing the same as the active ingredient” (Ono Pharmaceutical Co., Ltd., priority 2000, dated 2003).

Assays:
TNF-α = experiment: Inhibitory action on producing TNF-α induced by LPS in rat; assay type: in vivo, SD-strain male rat; conditions: p.o. 30 minutes before LPS (10 μg/2 ml/kg i.v.); dose giving 50% inhibition of TNF-α in blood plasma 90 minutes after LPS
Method: LPS (10 μg/2 ml/kg) was administered into a tail vein of SD-strain male rat. Blood was collected from an abdominal large vein with heparin after 90 minutes from administration to prepare blood plasma. The amount of TNF-α in the blood plasma was determined by using ELISA Kit (Rat TNF-α Immunoassay kit, Biosource Co.). Each compound of the present invention was administered orally before 30 minutes from administration of LPS.

[1] = Converting into carboxylic acid in the living body: concentration in blood plasma of rat (LC/MS/MS); assay type: in vivo, SD-strain male rat; conditions: after Example 1(1) 1 mg/kg intravenous to rat, parent alcohol and the carboxylic acid formed from it
Method: The compound of Example 1(1) (1 mg/kg; alcohol compound) was administered into SD-strain male rat by intravenous route to determine each concentration of the said compound and corresponding carboxylic acid, i.e., (11α, 15α, 13E)-9-oxo-11,15-dihydroxy-16-(3-methoxymethylphenyl)-17,18,19,20-tetranor-5-thiaprost-13-enoic acid (corresponding carboxylic acid) in blood plasma. The test solution may be prepared from a physiological saline solution containing 0.3%ethanol and 0.1% POLYSORBATE 80. The concentration was determined by using liquid chromatograph mass spectrometer (LC/MS/MS).

SMILES | Effective dose IC50 (TNF-α) [mg/kg] | AUC(0-inf) ([1]; male, SD, plasma, read-out: Concentration in blood plasma AUC0-∞) [ng·h/mL] | Concentration in blood plasma AUC0-∞ [1] [ng·h/mL]
COCc1cccc(C[C@H](O)/C=C/[C@H]2[C@H](O)CC(=O)[C@@H]2CCSCCCCO)c1 [Example 1(1), (11α, 15α, 13E)-9-oxo-11,15-Dihydroxy-16-(3-methoxymethylphenyl)-17,18,19,20-tetranor-5-thiaprost-13-en-1-alcohol] | 0.0574 | 462 ± 78 | 
COCc1cccc(C[C@H](O)/C=C/[C@H]2CCC(=O)[C@@H]2CCSCCCCO)c1 [Example 1, (15α, 13E)-9-oxo-15-Hydroxy-16-(3-methoxymethylphenyl)-17,18,19,20-tetranor-5-thiaprost-13-en-1-alcohol] | 0.117 |  | 
COCc1cccc(C[C@H](O)/C=C/[C@H]2[C@H](O)CC(=O)[C@@H]2CCSCCCC(=O)O)c1 [corresponding carboxylic acid, (11α, 15α, 13E)-9-oxo-11,15-dihydroxy-16-(3-methoxymethylphenyl)-17,18,19,20-tetranor-5-thiaprost-13-enoic acid] |  |  | 99 ± 26
